Legend:
[1] = target: T1, Coagulation factor VII (Homo sapiens, UniProt P08709); test: Inhibition of factor 7a (unknown origin)
T1 sequence (P08709 whole entry): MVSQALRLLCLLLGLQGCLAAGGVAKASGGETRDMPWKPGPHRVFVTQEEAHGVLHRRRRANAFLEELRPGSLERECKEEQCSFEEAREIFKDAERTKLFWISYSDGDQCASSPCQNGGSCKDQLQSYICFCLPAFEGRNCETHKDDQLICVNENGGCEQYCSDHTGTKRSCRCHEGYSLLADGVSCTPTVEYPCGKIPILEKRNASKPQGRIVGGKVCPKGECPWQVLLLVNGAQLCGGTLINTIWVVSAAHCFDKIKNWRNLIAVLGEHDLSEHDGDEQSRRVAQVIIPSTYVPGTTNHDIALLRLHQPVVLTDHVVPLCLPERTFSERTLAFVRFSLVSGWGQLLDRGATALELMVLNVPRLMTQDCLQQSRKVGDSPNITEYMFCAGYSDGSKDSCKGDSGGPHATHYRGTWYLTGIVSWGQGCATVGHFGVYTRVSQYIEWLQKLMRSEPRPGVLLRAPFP

[2] = target: T2, Coagulation factor XII (Homo sapiens, UniProt P00748); test: Inhibition of factor 12a (unknown origin)
T2 sequence (P00748 whole entry): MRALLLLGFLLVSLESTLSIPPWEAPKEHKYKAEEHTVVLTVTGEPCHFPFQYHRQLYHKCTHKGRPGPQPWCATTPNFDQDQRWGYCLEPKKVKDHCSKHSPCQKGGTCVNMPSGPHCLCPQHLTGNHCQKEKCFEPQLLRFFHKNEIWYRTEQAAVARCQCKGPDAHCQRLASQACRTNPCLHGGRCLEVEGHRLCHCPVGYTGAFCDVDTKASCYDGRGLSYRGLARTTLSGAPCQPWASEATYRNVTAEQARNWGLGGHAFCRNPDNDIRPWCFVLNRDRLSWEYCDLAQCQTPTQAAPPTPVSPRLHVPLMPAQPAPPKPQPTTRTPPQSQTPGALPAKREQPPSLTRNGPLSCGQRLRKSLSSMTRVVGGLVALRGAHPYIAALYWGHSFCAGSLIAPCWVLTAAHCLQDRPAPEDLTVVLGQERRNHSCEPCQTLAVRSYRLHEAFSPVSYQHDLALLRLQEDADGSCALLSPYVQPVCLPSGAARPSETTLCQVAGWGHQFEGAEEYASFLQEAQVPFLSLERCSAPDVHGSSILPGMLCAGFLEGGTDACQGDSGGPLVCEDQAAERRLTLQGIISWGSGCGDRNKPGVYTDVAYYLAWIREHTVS

[3] = target: Coagulation factor X (Homo sapiens, UniProt P00742); test: Inhibition of factor 10a (unknown origin)
Sequence of Coagulation factor X (P00742 41-179 limits assumed): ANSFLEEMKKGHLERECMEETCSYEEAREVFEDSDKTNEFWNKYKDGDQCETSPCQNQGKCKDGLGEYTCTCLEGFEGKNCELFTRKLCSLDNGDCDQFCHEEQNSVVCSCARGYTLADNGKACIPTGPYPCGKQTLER
Sequence of Coagulation factor X (P00742 235-488 limits assumed): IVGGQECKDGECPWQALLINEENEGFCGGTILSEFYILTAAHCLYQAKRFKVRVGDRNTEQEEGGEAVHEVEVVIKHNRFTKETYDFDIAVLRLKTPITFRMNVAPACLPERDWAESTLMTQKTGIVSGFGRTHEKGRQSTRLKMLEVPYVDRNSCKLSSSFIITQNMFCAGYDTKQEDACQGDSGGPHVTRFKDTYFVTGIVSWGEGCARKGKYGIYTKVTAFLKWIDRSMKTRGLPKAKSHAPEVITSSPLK

[4] = target: Trypsin (Homo sapiens, UniProt P07477+P07478+P35030); test: Inhibition of trypsin (unknown origin); format: protein assay
[5] = target: Cytochrome P450 2D6 (Homo sapiens, UniProt P10635); test: Inhibition of CYP2D6 (unknown origin) up to 50 uM; format: ADME
Sequence of Cytochrome P450 2D6 (P10635 whole entry): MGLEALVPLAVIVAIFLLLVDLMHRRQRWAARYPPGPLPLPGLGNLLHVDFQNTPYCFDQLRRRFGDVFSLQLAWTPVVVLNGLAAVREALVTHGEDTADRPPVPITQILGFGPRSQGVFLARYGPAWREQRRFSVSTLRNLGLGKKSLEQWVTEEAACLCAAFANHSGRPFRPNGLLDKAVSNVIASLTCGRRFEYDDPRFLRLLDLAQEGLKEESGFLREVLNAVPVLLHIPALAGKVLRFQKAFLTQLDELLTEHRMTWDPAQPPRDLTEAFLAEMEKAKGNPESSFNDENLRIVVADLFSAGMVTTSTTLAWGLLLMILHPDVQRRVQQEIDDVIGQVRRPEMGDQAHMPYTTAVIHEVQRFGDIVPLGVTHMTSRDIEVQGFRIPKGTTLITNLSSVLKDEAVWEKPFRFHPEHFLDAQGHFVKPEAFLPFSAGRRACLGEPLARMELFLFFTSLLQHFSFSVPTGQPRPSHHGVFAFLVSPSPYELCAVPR

[6] = target: Cytochrome P450 3A4 (Homo sapiens, UniProt P08684); test: Inhibition of CYP3A4 (unknown origin) up to 50 uM; format: ADME
Sequence of Cytochrome P450 3A4 (P08684 whole entry): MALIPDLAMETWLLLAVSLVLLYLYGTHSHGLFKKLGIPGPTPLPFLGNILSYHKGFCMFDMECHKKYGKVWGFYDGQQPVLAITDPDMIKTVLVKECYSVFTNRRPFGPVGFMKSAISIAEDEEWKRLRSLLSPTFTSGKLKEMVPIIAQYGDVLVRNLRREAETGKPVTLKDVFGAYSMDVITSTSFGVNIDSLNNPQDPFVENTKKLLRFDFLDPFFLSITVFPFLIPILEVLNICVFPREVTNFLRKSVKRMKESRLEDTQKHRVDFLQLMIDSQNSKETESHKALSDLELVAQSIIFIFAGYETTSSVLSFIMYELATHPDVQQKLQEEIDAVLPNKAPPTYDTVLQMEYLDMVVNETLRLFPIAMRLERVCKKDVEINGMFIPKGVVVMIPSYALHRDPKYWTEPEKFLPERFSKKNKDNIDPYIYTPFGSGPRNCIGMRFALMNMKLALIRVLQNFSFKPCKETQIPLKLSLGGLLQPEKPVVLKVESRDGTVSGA

[7] = target: Cytochrome P450 2C9 (Homo sapiens, UniProt P11712); test: Inhibition of CYP2C9 (unknown origin) up to 50 uM; format: ADME
Sequence of Cytochrome P450 2C9 (P11712 whole entry): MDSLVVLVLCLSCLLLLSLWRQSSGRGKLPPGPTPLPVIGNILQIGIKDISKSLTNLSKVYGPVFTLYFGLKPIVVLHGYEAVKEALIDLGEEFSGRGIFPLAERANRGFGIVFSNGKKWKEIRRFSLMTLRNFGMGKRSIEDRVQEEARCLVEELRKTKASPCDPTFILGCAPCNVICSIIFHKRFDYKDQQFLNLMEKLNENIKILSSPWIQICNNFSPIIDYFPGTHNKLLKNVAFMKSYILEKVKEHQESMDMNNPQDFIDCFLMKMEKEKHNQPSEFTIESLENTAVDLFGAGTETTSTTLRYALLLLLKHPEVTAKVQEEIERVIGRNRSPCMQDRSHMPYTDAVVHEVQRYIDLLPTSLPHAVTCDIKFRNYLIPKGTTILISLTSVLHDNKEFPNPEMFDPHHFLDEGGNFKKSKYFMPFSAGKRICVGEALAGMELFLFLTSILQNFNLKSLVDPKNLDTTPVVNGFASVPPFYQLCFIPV

[8] = Volume of distribution in dog at 0.3 mg/kg, iv; format: ADME, organism-based, Canis lupus familiaris; design: dose 0.3 mg/kg, route intravenous; conditions: in vivo
[9] = Half life in dog at 0.3 mg/kg, iv; format: ADME, organism-based, Canis lupus familiaris; design: dose 0.3 mg/kg, route intravenous; conditions: in vivo
[10] = Metabolic stability in dog hepatocytes assessed as compound remaining after 90 mins; format: ADME, cell-based, Canis lupus familiaris, Hepatocyte; conditions: read-out: Stability
[11] = AUC in dog at 0.3 mg/kg, iv; format: ADME, organism-based, Canis lupus familiaris; design: dose 0.3 mg/kg, route intravenous; conditions: plasma
[12] = Clearance in dog at 0.3 mg/kg, iv; format: ADME, organism-based, Canis lupus familiaris; design: dose 0.3 mg/kg, route intravenous; conditions: in vivo
[13] = target: Coagulation factor IX (Homo sapiens, UniProt P00740); test: Inhibition of factor 9a (unknown origin)
Sequence of Coagulation factor IX (P00740 47-191 limits assumed): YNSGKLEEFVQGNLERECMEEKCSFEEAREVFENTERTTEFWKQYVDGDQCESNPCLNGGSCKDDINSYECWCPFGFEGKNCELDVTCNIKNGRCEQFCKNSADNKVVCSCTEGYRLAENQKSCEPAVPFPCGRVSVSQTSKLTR
Sequence of Coagulation factor IX (P00740 227-461 limits assumed): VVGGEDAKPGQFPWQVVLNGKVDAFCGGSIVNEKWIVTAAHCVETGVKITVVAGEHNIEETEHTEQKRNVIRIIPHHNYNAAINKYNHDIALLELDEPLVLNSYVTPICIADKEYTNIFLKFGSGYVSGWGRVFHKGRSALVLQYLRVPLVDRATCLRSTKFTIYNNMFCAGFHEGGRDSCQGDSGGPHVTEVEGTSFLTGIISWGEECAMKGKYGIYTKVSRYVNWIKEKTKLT

[14] = target: Prothrombin (Homo sapiens, UniProt P00734); test: Inhibition of thrombin (unknown origin)

CC(C)(C)[C@@H](O)C(=O)N1CCS(=O)(=O)C[C@H]1C(=O)NCc1cc(Cl)ccc1CN.O=C(O)C(F)(F)F
Ki [1]: > 15 µM
Ki [2]: > 15 µM
Ki [3]: 3.1 µM
Ki [4]: 15 µM
inhibition (INH) [5]: Not Active
inhibition (INH) [6]: Not Active
inhibition (INH) [7]: Not Active

CC(C)(C)[C@@H](O)C(=O)N1CC[S+]([O-])C[C@H]1C(=O)NCc1cc(Cl)ccc1CN.O=C(O)C(F)(F)F (stereo partly specified)
inhibition (INH) [5]: Not Active
inhibition (INH) [6]: Not Active
inhibition (INH) [7]: Not Active

CC(C)(C)[C@@H](O)C(=O)N1CCSC[C@H]1C(=O)NCc1cc(Cl)ccc1CN.O=C(O)C(F)(F)F
Ki [1]: > 15 µM
Vd [8]: 2.3 L/kg
Ki [2]: > 15 µM
Ki [3]: 0.9 µM
half-life [9]: 2.7 h
Ki [4]: 9.4 µM
remaining at 1.5 h [10]: 76%
AUC [11]: 1 µM·h
inhibition (INH) [5]: Not Active
inhibition (INH) [6]: Not Active
clearance [12]: 12.8 mL/min/kg
inhibition (INH) [7]: Not Active

CC(C)(C)[C@@H](O)C(=O)N1CCOC[C@H]1C(=O)NCc1cc(Cl)ccc1CN.O=C(O)C(F)(F)F
Ki [1]: > 15 µM
Ki [2]: > 15 µM
Ki [3]: 3.9 µM
Ki [13]: 15 µM
Ki [4]: 15 µM
inhibition (INH) [5]: Not Active
inhibition (INH) [6]: Not Active
inhibition (INH) [7]: Not Active

CN1CCN(C(=O)[C@H](O)C(C)(C)C)[C@H](C(=O)NCc2cc(Cl)ccc2CN)C1.O=C(O)C(F)(F)F
Ki [1]: > 15 µM
Ki [2]: > 15 µM
Ki [3]: 3.7 µM
Ki [4]: 15 µM
inhibition (INH) [5]: Not Active
inhibition (INH) [6]: Not Active
inhibition (INH) [7]: Not Active

CC(C)(C)[C@@H](O)C(=O)N1CCNC[C@H]1C(=O)NCc1cc(Cl)ccc1CN.O=C(O)C(F)(F)F
Ki [1]: > 15 µM
Ki [2]: > 15 µM
Ki [3]: 4.4 µM
Ki [13]: 15 µM
Ki [4]: 15 µM
inhibition (INH) [5]: Not Active
inhibition (INH) [6]: Not Active
inhibition (INH) [7]: Not Active

CC(C)(C)[C@@H](O)C(=O)N1CCCC[C@H]1C(=O)NCc1cc(Cl)ccc1CN.O=C(O)C(F)(F)F
Ki [1]: > 15 µM
Ki [2]: > 15 µM
Ki [3]: 1.8 µM
Ki [4]: 10.6 µM
inhibition (INH) [5]: Not Active
inhibition (INH) [6]: Not Active
inhibition (INH) [7]: Not Active

CC(C)(C)[C@@H](O)C(=O)N1CCC[C@H]1C(=O)NCc1cc(Cl)ccc1CN.O=C(O)C(F)(F)F
Ki [1]: > 15 µM
Vd [8]: 1.9 L/kg
Ki [2]: > 15 µM
Ki [3]: 1.4 µM
half-life [9]: 6.8 h
Ki [13]: > 3 µM
Ki [4]: 5.6 µM
remaining at 1.5 h [10]: 93%
AUC [11]: 10 µM·h
inhibition (INH) [5]: Not Active
inhibition (INH) [6]: Not Active
Ki [14]: 0.0015 µM
clearance [12]: 3.5 mL/min/kg
inhibition (INH) [7]: Not Active
